Patent US10429384B2, “Compositions, kits, and methods for identification, assessment, prevention, and therapy of metabolic disorders” (Dana-Farber Cancer Institute, Inc., priority 2010, dated 2019)
Entries after “also recorded” stand apart in the source; their conditions may differ.

Tests used:
[1] = target: T1, wild type PPAR gamma (cdk5-mediated phosphorylation) (Mus musculus, UniProt P37238); test: TNF-α-induced phosphorylation of PPAR gamma in 3T3-L1 adipocytes expressing wild type PPAR gamma; type: cell-based; conditions: combined with rosiglitazone, FIG. 5A
T1 construct: expressed in transfected cells; host or cells: 3T3-L1 adipocytes
T1 sequence (P37238 1-505): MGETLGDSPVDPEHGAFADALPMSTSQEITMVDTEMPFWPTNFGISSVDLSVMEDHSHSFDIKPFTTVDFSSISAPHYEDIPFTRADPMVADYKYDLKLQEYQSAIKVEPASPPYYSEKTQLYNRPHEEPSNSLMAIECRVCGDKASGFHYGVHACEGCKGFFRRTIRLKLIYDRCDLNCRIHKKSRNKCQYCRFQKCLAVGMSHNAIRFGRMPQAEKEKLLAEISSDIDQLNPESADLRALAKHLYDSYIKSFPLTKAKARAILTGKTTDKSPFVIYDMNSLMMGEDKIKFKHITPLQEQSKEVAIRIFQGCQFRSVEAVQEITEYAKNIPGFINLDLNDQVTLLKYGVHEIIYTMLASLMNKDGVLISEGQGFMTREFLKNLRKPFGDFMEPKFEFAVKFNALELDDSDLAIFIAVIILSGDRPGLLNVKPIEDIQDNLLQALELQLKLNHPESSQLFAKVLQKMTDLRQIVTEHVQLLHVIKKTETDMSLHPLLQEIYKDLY
Description: HEK-293 cells expressing CDK5 or PPAR gamma were collected after transfection. Total cell lysates were incubated with FLAG M2 agarose (Sigma) at 4° C. Immunoprecipitates or total cell lysates were analyzed with anti-CDK substrate, FLAG or HA (Roche) antibodies. Differentiated 3T3-L1 adipocytes were treated with TNF-α (50 ng/ml), IL-6 (50 ng/ml), IL-10 (50 ng/ml) or FFAs (400 μM palmitic acid and oleic acid mixtures) for the indicated times, and cell lysates were analyzed with phospho-specific or PPAR gamma antibodies. 3T3-L1 adipocytes were pre-treated with various PPAR gamma ligands, and incubated with TNF-α. For tissue lysates, WAT from mice was homogenized in RIPA buffer (50 mM Tris pH7.5, 150 mM NaCl, 1% NP-40, 0.5% sodium deoxycholate, 0.1% SDS with protease and phosphatase inhibitors). […] Total tissue lysates were analyzed with anti-PPAR gamma, phospho-CDK5 (Y15), CDK5 and p35 antibodies (Santa Cruz).

[2] = target: T2, PPAR gamma (PPAR transcriptional response element) (Mus musculus, UniProt P37238); test: Reporter gene assay, PPAR-derived reporter gene in HEK-293 cells; type: cell-based
T2 construct: expressed in transfected cells; host or cells: HEK-293
T2 sequence (P37238 1-505): T1 sequence (P37238 1-505)
T2 sequence (P19793 1-462 partner): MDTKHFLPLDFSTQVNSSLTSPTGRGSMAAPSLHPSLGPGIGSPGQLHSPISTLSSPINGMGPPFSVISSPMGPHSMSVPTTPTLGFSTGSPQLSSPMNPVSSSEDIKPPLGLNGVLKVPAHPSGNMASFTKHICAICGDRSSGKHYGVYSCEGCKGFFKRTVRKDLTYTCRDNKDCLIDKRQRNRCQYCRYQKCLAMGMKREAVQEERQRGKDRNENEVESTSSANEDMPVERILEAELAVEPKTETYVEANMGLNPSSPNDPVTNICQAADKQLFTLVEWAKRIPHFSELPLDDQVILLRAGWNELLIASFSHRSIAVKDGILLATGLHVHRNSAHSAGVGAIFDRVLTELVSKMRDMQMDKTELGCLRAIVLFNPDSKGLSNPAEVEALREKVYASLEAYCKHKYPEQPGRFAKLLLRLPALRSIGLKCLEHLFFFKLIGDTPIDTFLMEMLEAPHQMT
Description: In some examples, HEK-293 cells were seeded in 12-well plates at 1.5×10^5 cells/well. HEK-293 cells were transfected with pDR-1 (3×, based on the UCP1 PPAR gamma recognition site)-luciferase reporter plasmid, PPAR gamma, RXRa and pRL-renillin using Lipofectamine 2000 (Invitrogen). […] The cells were harvested and reporter gene assays were carried out using the Dual-Luciferase kit (Promega). Luciferase activity was normalized to renillia activity.

[3] = target: T3, PPAR gamma (TNF-α-mediated phosphorylation) (Mus musculus, UniProt P37238); test: TNF-α-induced phosphorylation of PPAR gamma in HEK-293 cells; type: cell-based; conditions: 30 nM; FIG. 5E
T3 construct: expressed in transfected cells; host or cells: HEK-293
T3 sequence (P37238 1-505): T1 sequence (P37238 1-505)
Description: HEK-293 cells expressing CDK5 or PPAR gamma were collected after transfection. Total cell lysates were incubated with FLAG M2 agarose (Sigma) at 4° C. Immunoprecipitates or total cell lysates were analyzed with anti-CDK substrate, FLAG or HA (Roche) antibodies. Differentiated 3T3-L1 adipocytes were treated with TNF-α (50 ng/ml), IL-6 (50 ng/ml), IL-10 (50 ng/ml) or FFAs (400 μM palmitic acid and oleic acid mixtures) for the indicated times, and cell lysates were analyzed with phospho-specific or PPAR gamma antibodies. 3T3-L1 adipocytes were pre-treated with various PPAR gamma ligands, and incubated with TNF-α. […] Phosphorylation of PPAR gamma on Ser112 or Ser273 was detected by phospho-specific antibodies (Ser112, Millipore, MAB3632).

[4] = target: T4, cdk5-mediated phosphorylation of PPAR gamma in adipose tissue (Mus musculus, UniProt P37238); test: Phosphorylation of PPAR gamma in adipose tissue (WAT) of treated high-fat fed mice; type: in vivo; conditions: 10 mg/kg for 7 days, FIG. 9D
T4 construct: For tissue lysates, WAT from mice was homogenized in RIPA buffer; from tissue; host or cells: white adipose tissue of C57BL/6J mice on high fat diet
T4 sequence (P37238 1-505): T1 sequence (P37238 1-505)
Description: For tissue lysates, WAT from mice was homogenized in RIPA buffer (50 mM Tris pH7.5, 150 mM NaCl, 1% NP-40, 0.5% sodium deoxycholate, 0.1% SDS with protease and phosphatase inhibitors). […] Total tissue lysates were analyzed with anti-PPAR gamma, phospho-CDK5 (Y15), CDK5 and p35 antibodies (Santa Cruz). Phosphorylation of PPAR gamma on Ser112 or Ser273 was detected by phospho-specific antibodies (Ser112, Millipore, MAB3632).
4 to 5-week old male C57BL/6J mice were obtained from the Jackson Laboratory.

high-fat fed mice = test: Glucose tolerance, fasting insulin and body weight in high-fat fed mice; conditions: 10 mg/kg for 7 days
Description: 4 to 5-week old male C57BL/6J mice were obtained from the Jackson Laboratory. Mice were fed a regular diet (10% kcal fat, D12450B, Research Diets Inc.) or a high fat diet (60% kcal fat, D12492, Research Diets Inc.) as indicated time periods. […] Glucose was measured in tail vain blood at intervals after glucose injection using a Truetrack glucometer. Serum insulin concentrations were determined by ELISA (Crystal Chem).

mice [5] = conditions: Acton et al. 2005; cited from earlier work
[6] = tested on: PPAR gamma-null fibroblasts expressing WT PPAR gamma; test: Microarray analysis of differentiated PPAR gamma-null fibroblasts expressing wild type PPAR gamma; type: cell-based, mouse; conditions: 1 μM, 24 hours; FIG. 5F
From the text: To create refined gene sets regulated by cdk5 phosphorylation of PPAR gamma, p-value as well as fold-change of gene expression in WT versus S273A mutant cells was first calculated, and—log p-value versus log2 fold-change was plotted.

adipogenesis = conditions: cited from earlier work
[7] = target: T5, cdk5-mediated phosphorylation of PPAR gamma (serine 273) (Mus musculus, UniProt P37238); test: In vitro CDK5 kinase assay with cdk5/p35 and PPAR gamma as substrate; type: biochemical, murine; conditions: FIG. 5B, FIG. 6
T5 construct: FLAG (N); made in house
T5 sequence (P37238 1-505): T1 sequence (P37238 1-505)
Description: Kinase assays were performed using an active cdk5/p35 protein and recombinant PPAR gamma protein as a substrate in kinase buffer in the presence of ATP. The reaction was stopped by adding sample buffer. Samples were then subjected to SDS-PAGE, and detected by CDK substrate antibody. In particular, active cdk5/p35, cdk1/cdc2, cdk2/cyclin A, cdk2/cyclin E or cdk4/cyclin D1 kinases were purchased from Millipore or Cell Signaling Technology. In vitro CDK kinase assay was performed according to the manufacturer's instructions (Cell Signaling Technology). […] Positive control for assay, purified histone H1 (Millipore) or Rb (Cell Signaling Technology) were used. Several PPAR gamma ligands were pre-incubated with substrates for 30 min, and the assay was performed. Phosphorylation of substrates after SDS-PAGE was analyzed with anti-CDK substrate antibody (Cell Signaling Technology).

mice [8] = test: Whole body oxygen consumption (CLAMS) in treated mice; type: in vivo; conditions: 10 mg/kg for 10 days
[9] = target: T6, cdk5 (Rb protein as substrate) (Homo sapiens, UniProt Q00535); test: In vitro CDK5 kinase assay with Rb as substrate; type: biochemical; conditions: selectivity control
T6 construct: purchased Millipore or Cell Signaling Technology
T6 sequence (Q00535 whole entry, species assumed): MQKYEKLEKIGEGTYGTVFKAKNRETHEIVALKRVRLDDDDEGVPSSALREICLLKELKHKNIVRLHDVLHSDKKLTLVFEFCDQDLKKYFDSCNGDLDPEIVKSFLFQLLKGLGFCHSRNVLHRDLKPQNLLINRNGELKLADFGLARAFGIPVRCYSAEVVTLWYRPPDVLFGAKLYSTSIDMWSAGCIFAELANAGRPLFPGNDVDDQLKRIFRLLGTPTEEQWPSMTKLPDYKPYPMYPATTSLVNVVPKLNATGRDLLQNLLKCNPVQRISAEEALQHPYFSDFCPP
T6 sequence (Q15078 whole entry partner, species assumed): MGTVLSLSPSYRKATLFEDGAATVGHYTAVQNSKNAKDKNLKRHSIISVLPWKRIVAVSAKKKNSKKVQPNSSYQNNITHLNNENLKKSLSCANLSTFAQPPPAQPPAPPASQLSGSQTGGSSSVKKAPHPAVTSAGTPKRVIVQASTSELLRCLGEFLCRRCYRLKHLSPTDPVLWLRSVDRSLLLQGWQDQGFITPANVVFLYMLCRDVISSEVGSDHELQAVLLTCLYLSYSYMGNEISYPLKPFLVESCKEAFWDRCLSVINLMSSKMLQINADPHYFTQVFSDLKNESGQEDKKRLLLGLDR
Description: Kinase assays were performed using an active cdk5/p35 protein and recombinant PPAR gamma protein as a substrate in kinase buffer in the presence of ATP. The reaction was stopped by adding sample buffer. Samples were then subjected to SDS-PAGE, and detected by CDK substrate antibody. In particular, active cdk5/p35, cdk1/cdc2, cdk2/cyclin A, cdk2/cyclin E or cdk4/cyclin D1 kinases were purchased from Millipore or Cell Signaling Technology. In vitro CDK kinase assay was performed according to the manufacturer's instructions (Cell Signaling Technology). Briefly, 1 μg of immuno-purified WT or S273A mutant of PPAR gamma were incubated with active CDK kinase in kinase assay buffer (25 mM Tris-HCl pH 7.5, 5 mM beta-glycerophosphate, 2 mM dithiothreitol (DTT), 0.1 mM Na3VO4, 10 mM MgCl2) containing 20 μM ATP for 15 min at 30° C. Positive control for assay, purified histone H1 (Millipore) or Rb (Cell Signaling Technology) were used. Several PPAR gamma ligands were pre-incubated with substrates for 30 min, and the assay was performed. Phosphorylation of substrates after SDS-PAGE was analyzed with anti-CDK substrate antibody (Cell Signaling Technology).

In the case of O=C(Nc1ccccc1)c1cc([N+](=O)[O-])ccc1Cl [GW 9662], the “effect of antagonist on rosiglitazone inhibition of PPAR gamma phosphorylation” value [1] is reported as “completely blocked this effect of rosiglitazone”.
In the case of COc1ccc(C(=O)n2c(C)c(Cc3cccc(O[C@@H](C)C(=O)O)c3)c3cc(OC(F)(F)F)ccc32)cc1 [MRL24], the “agonist activity on PPAR gamma at 30 nM” value ([2]; 30 nM, same cells as phosphorylation test) is reported as “essentially undetectable agonist activity”, the “agonist activity on a PPAR transcriptional response element” value ([2]; compared to rosiglitazone) is reported as “very weak agonist activity; also recorded: only a small fraction of the agonist activity of rosiglitazone” and the “block of TNF-α-mediated phosphorylation of PPAR gamma” value [3] is reported as “blocked the TNF-α-mediated phosphorylation of PPAR gamma essentially completely”. For the same compound, the “cdk5-mediated phosphorylation of PPAR gamma in adipose tissue” value [4] was “reduced the cdk5-mediated phosphorylation of PPAR gamma in the adipose tissue of every mouse”, the fasting insulin levels (high-fat fed mice) was “reduced fasting insulin levels” and the glucose tolerance (high-fat fed mice) was “dramatically improved glucose tolerance”. For the same compound, the anti-diabetic activity (mice [5]) was “excellent anti-diabetic activity in mice”, the “expression of gene cluster "c" (genes increased by the cdk5 site mutation)” value [6] was “corresponded remarkably well to the gene set induced by the mutation in the cdk5 site of PPAR gamma” and the “expression of gene group "a" (genes activated by cdk5 phosphorylation of PPAR gamma)” value [6] was “suppressed”. For the same compound, the “ability to promote adipogenesis” value (adipogenesis) was “virtually no ability to promote adipogenesis”, the “blocking of cdk5-mediated phosphorylation of PPAR gamma” value [7] was “very effective at blocking the cdk5-mediated phosphorylation of PPAR gamma” and the “whole body oxygen consumption” value (mice [8]) was “selectively increase whole body oxygen consumption in vivo”. The “inhibition of cdk5 phosphorylation of Rb” value [9] was “retained full ability to phosphorylate Rb”.
With CN(CCOc1ccc(CC2SC(=O)NC2=O)cc1)c1ccccn1 (stereo not drawn) [rosiglitazone] the body weight (high-fat fed mice) was “without inducing changes in body weight”.
